Key:
[1] = target: PI3Kα (p110/p85) kinase (wild type, "WT") (Homo sapiens, UniProt P42336); assay: PI3Kα (p110/p85) kinase ADP-Glo Assay; format: biochemical; details: 25 uM ATP
In short: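 IC50 values come from a four-parameter logistic fit of ADP-Glo chemiluminescence, reflecting ADP formed. Enzyme, lipid substrate and […] compound were preincubated 30 min at room temperature, then 25 µM ATP was added for a 120 min reaction in 50 mM HEPES pH7.5, 3 mM MgCl2.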

[2] = target: PI3Kα (p110[H1047R]/p85) kinase (Homo sapiens, UniProt P42336, H1047R); assay: PI3Kα (p110[H1047R]/p85) kinase ADP-Glo Assay; format: biochemical; details: 25 uM ATP; for selectivity: WT/H1047R: ADP-Glo Assay IC50 ratio
Chain of PI3Kα (p110[H1047R]/p85) kinase (P42336 whole entry H1047R): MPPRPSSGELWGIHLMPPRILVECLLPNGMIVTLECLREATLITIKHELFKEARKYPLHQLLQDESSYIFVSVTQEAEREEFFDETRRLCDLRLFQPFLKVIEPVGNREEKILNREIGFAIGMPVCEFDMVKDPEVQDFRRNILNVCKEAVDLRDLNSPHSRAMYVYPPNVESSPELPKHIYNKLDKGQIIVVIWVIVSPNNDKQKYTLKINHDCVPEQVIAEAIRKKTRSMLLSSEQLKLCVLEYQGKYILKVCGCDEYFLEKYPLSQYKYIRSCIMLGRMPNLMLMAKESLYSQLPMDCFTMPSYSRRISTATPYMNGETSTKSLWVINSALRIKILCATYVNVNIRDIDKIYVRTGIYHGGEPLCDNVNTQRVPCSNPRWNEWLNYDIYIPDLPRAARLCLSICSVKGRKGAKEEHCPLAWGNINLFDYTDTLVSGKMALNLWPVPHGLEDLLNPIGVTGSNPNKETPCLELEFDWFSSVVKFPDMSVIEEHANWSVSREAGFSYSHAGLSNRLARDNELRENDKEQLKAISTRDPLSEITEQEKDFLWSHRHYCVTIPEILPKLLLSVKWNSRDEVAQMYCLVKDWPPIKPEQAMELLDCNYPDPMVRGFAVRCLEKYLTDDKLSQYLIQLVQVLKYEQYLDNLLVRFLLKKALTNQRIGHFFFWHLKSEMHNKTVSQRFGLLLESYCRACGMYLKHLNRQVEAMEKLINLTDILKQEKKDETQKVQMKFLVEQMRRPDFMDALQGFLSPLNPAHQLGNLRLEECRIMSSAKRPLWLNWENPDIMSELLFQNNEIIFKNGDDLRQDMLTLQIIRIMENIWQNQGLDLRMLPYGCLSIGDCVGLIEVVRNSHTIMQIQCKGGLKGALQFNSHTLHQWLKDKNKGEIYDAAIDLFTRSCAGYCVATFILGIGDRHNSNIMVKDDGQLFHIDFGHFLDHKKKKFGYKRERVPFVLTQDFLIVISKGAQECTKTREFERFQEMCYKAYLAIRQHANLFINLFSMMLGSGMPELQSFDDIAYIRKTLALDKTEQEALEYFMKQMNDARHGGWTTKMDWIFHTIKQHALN
Chain of PI3Kα (p110[H1047R]/p85) kinase (P27986 whole entry partner): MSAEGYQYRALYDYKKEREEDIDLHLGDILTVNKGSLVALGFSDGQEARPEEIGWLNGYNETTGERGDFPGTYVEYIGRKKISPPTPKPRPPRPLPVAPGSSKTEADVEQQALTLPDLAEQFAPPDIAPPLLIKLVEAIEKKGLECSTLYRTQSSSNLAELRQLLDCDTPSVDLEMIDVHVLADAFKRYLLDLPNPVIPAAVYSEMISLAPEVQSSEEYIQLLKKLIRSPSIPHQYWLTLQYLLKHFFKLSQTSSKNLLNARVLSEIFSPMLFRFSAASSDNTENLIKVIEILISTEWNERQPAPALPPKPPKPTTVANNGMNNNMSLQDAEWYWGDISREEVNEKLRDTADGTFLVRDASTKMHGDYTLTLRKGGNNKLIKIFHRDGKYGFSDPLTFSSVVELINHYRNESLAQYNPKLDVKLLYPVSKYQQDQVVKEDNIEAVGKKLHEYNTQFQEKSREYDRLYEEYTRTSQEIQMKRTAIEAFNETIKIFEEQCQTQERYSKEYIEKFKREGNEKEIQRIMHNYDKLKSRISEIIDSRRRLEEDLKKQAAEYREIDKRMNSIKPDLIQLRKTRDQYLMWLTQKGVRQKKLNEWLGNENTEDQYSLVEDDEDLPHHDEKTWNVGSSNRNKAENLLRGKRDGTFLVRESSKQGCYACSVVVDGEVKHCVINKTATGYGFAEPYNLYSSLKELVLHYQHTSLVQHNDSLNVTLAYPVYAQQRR
In short: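 ADP-Glo luminescence tracked ADP formed by the mutant p110α(H1047R)/p85 complex during a 120 min room-temperature reaction with 25 µM ATP and 5.35 µg/ml PI(4,5)P2:PS lipid substrate, started after 30 min enzyme–compound–substrate pre-incubation (compound […], 50 mM HEPES pH 7.5). IC50 via four-parameter logistic equation.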

Chain of PI3Kα (p110/p85) kinase (wild type, "WT") (P42336 whole entry): as the sequence (P42336 whole entry H1047R) above, with R1047H counted along it
Chain of PI3Kα (p110/p85) kinase (wild type, "WT") (P27986 whole entry partner): as the sequence (P27986 whole entry partner) above

Row | IC50 [1] [µM] | IC50 [2] [nM] | selectivity: WT/H1047R [2] | Compound
1 | 10.4 | 376 | 27.6 | Cc1cc(C(C)Nc2ccccc2C(=O)O)c2cc(-c3cccc(C(F)(F)F)c3)n(C)c(=O)c2c1 (stereo not drawn) [Example 50, 2-((1-(2,7-dimethyl-1-oxo-3-(3-(trifluoromethyl)phenyl)-1,2-dihydroisoquinolin-5-yl)ethyl)amino)benzoic acid]
2 | 3.78 | 215 | 17.6 | CCn1c(-c2ccc(F)cc2)cc2c(C(C)Nc3ccc(Cl)nc3C(=O)O)cc(C)cc2c1=O (stereo not drawn) [Example 81, 6-chloro-3-((1-(2-ethyl-3-(4-fluorophenyl)-7-methyl-1-oxo-1,2-dihydroisoquinolin-5-yl)ethyl)amino)picolinic acid]
3 | 11.1 | 480 | 23.0 | Cc1cc(C(C)Nc2ccccc2C(=O)O)c2cc(C3=CCN(c4ccccc4)CC3)n(C)c(=O)c2c1 (stereo not drawn) [Example 46, 2-((1-(2,7-dimethyl-1-oxo-3-(1-phenyl-1,2,3,6-tetrahydropyridin-4-yl)-1,2-dihydroisoquinolin-5-yl)ethyl)amino)benzoic acid]
4 | 10.6 | 922 | 11.5 | Cc1cc(C(C)Nc2ccccc2C(=O)O)c2cc(-c3ccc4nn(C)cc4n3)n(C)c(=O)c2c1 (stereo not drawn) [Example 39, 2-((1-(2,7-dimethyl-3-(2-methyl-2H-pyrazolo[4,3-b]pyridin-5-yl)-1-oxo-1,2-dihydroisoquinolin-5-yl)ethyl)amino)benzoic acid]
5 | 10.4 | 247 | 42.1 | Cc1cc(C(C)Nc2ccccc2C(=O)O)c2cc(-c3ccc(C(C)(C)O)cc3)n(C)c(=O)c2c1 (stereo not drawn) [Example 51, 2-((1-(3-(4-(2-hydroxypropan-2-yl)phenyl)-2,7-dimethyl-1-oxo-1,2-dihydroisoquinolin-5-yl)ethyl)amino)benzoic acid]
6 | 4.84 | 261 | 18.5 | Cc1cc(C(C)Nc2ccccc2C(=O)O)c2cc(-c3ccc4c(c3)C3CC3O4)n(C)c(=O)c2c1 (stereo not drawn) [Example 53, 2-((1-(3-(1a,6b-dihydro-1H-cyclopropa[b]benzofuran-5-yl)-2,7-dimethyl-1-oxo-1,2-dihydroisoquinolin-5-yl)ethyl)amino)benzoic acid]
7 | 21.5 | 1110 | 19.3 | Cc1cc(C(C)Nc2ccccc2C(=O)O)c2cc(-c3cnc(C(C)(C)O)nc3)n(C)c(=O)c2c1 (stereo not drawn) [Example 66, 2-((1-(3-(2-(2-hydroxypropan-2-yl)pyrimidin-5-yl)-2,7-dimethyl-1-oxo-1,2-dihydroisoquinolin-5-yl)ethyl)amino)benzoic acid]
8 | 5.96 | 183 | 32.6 | Cc1cc(C(C)Nc2ccccc2C(=O)O)c2cc(-c3ccc(F)cc3)n(C)c(=O)c2c1 (stereo not drawn) [Example 8, 2-((1-(3-(4-fluorophenyl)-2,7-dimethyl-1-oxo-1,2-dihydroisoquinolin-5-yl)ethyl)amino)benzoic acid]
9 | 2.03 | 223 | 9.1 | Cc1cc(C(C)Nc2ccccc2C(=O)O)c2cc(-c3ccc(-c4cnn(C)c4)cc3)n(C)c(=O)c2c1 (stereo not drawn) [Example 23, 2-((1-(2,7-dimethyl-3-(4-(1-methyl-1H-pyrazol-4-yl)phenyl)-1-oxo-1,2-dihydroisoquinolin-5-yl)ethyl)amino)benzoic acid]
10 | 50.8 | 603 | 84.2 | Cc1cc(C(C)Nc2ccccc2C(=O)O)c2cc(-c3ccccn3)n(C)c(=O)c2c1 (stereo not drawn) [Example 36, 2-((1-(2,7-dimethyl-1-oxo-3-(pyridin-2-yl)-1,2-dihydroisoquinolin-5-yl)ethyl)amino)benzoic acid]
11 | 1.84 | 795 | 2.3 | Cc1cc(C(C)Nc2ccccc2C(=O)O)c2cc(/C=C/c3ccccc3)n(C)c(=O)c2c1 (stereo not drawn) [Example 44, (E)-2-((1-(2,7-dimethyl-1-oxo-3-styryl-1,2-dihydroisoquinolin-5-yl)ethyl)amino)benzoic acid]
12 | 4.73 | 230 | 20.6 | Cc1cc(C(C)Nc2ccccc2C(=O)O)c2cc(-c3ccc(C4(O)CC4)cc3)n(C)c(=O)c2c1 (stereo not drawn) [Example 62, 2-((1-(3-(4-(1-hydroxycyclopropyl)phenyl)-2,7-dimethyl-1-oxo-1,2-dihydroisoquinolin-5-yl)ethyl)amino)benzoic acid]
13 | 14.6 | 242 | 60.4 | Cc1cc(C(C)Nc2ccccc2C(=O)O)c2cc(-c3ccc(N4CCCC4)cc3)n(C)c(=O)c2c1 (stereo not drawn) [Example 84, 2-((1-(2,7-dimethyl-1-oxo-3-(4-(pyrrolidin-1-yl)phenyl)-1,2-dihydroisoquinolin-5-yl)ethyl)amino)benzoic acid]
14 | 3.72 | 156 | 23.9 | COc1ccc(-c2cc3c(C(C)Nc4ccccc4C(=O)O)cc(C)cc3c(=O)n2C)cc1 (stereo not drawn) [Example 14, 2-((1-(3-(4-methoxyphenyl)-2,7-dimethyl-1-oxo-1,2-dihydroisoquinolin-5-yl)ethyl)amino)benzoic acid]
15 | 2.36 | 235 | 10.1 | Cc1cc(C(C)Nc2ccccc2C(=O)O)c2cc(C#Cc3ccccc3)n(C)c(=O)c2c1 (stereo not drawn) [Example 43, 2-((1-(2,7-dimethyl-1-oxo-3-(phenylethynyl)-1,2-dihydroisoquinolin-5-yl)ethyl)amino)benzoic acid]
16 | 55.1 | 1050 | 52.6 | Cc1cc(C(C)Nc2cccnc2C(=O)O)c2cc(-c3ccc(F)cc3)n(C)c(=O)c2c1 (stereo not drawn) [Example 33, 3-((1-(3-(4-fluorophenyl)-2,7-dimethyl-1-oxo-1,2-dihydroisoquinolin-5-yl)ethyl)amino)picolinic acid]
17 | 52.3 | 1730 | 30.3 | Cc1cc(C(C)Nc2ccccc2C(=O)O)c2cc(-c3cccc4cn(C)nc34)n(C)c(=O)c2c1 (stereo not drawn) [Example 22, 2-((1-(2,7-dimethyl-3-(2-methyl-2H-indazol-7-yl)-1-oxo-1,2-dihydroisoquinolin-5-yl)ethyl)amino)benzoic acid]
18 | 1.34 | 121 | 11.1 | CC(Nc1ccccc1C(=O)O)c1cccc2c(=O)n(C)c(C#Cc3ccccc3)cc12 (stereo not drawn) [Example 21, 2-((1-(2-methyl-1-oxo-3-(phenylethynyl)-1,2-dihydroisoquinolin-5-yl)ethyl)amino)benzoic acid]
19 | 5.12 | 55 | 93.1 | Cc1cc([C@@H](C)Nc2ccccc2C(=O)O)c2cc(-c3ccc(-c4cnn(C)c4)cc3)n(C)c(=O)c2c1 [Example 40, (R)-2-((1-(2,7-dimethyl-3-(4-(1-methyl-1H-pyrazol-4-yl)phenyl)-1-oxo-1,2-dihydroisoquinolin-5-yl)ethyl)amino)benzoic acid]
20 | 6.95 | 325 | 21.4 | Cc1cc(C(C)Nc2ccccc2C(=O)O)c2cc(-c3ccn(-c4ccccc4)c3)n(C)c(=O)c2c1 (stereo not drawn) [Example 77, 2-((1-(2,7-dimethyl-1-oxo-3-(1-phenyl-1H-pyrrol-3-yl)-1,2-dihydroisoquinolin-5-yl)ethyl)amino)benzoic acid]
